The source of these data is US7632864B2, “Gabapentin analogues and process thereof” (Hikal Ltd., priority 2005, dated 2009).

Data set [1] deals with alpha 2 detla sub unit derived from porcine brain tissue. As to conditions: radio ligand binding, compound without stereochemistry, value from U.S. Pat. No. 6,103,932; cited from earlier work.
The nature of data set [2]: water solubility (precipitation of free amino acid at pH 7). The class given is physicochemical. As to conditions: compared to the other gabapentin analogues. The procedure: The process for the preparation of the cis and trans isomer of 4-t-butylgabapentin has been achieved, as outlined in Fig. I. 4-t-Butyl-cyclohexanone (I) was treated with ethylcyano acetate and ammonia in methanol to yield ammonium salt of dicyanoimide (2). Hydrolysis of (2) with hot sulfuric acid afforded the diacid (3) which was converted to the anhydride (4). (4) treated with aqueous ammonia to give the mono-amide (5) as a mixture containing approximately equal proportions of stereoisomers. Reaction of (5) with sodium hypobromite solution led to the formation of lactam (6) as a mixture of stereoisomers [proton NMR (7) and its isomer with NCH2 axial in the ratio of 3:2] from which one of the isomer could be crystallized out in pure form from methanol-hexane, mp 176-7° C. and its structure identified as (7) by NMR and single crystal X-ray analysis (Hydrolysis of lactam (6) with hot concentrated HCl gave a mixture of isomers of 4-t-butyl gabapentin hydrochloride (8). Crystallization of (8) from water afforded in pure form, mp 146-147° C., the isomer hemihydrate (9) with aminomethyl group in the anxial position. […]

By IC50 is commonly meant the midpoint of a concentration-inhibition curve. For orientation: melting point means the temperature, or range, at which the solid turns liquid.

Molecules are shown by their SMILES.

Turning to `CC(C)(C)C1CCC(CN)(CC(=O)O)CC1` (stereo not shown) [4-t-butyl gabapentin], the melting point fell in the range of 176 to 180 °C. Further, the IC50 in data set [1] was 200 µM.
`CC(C)(C)C1CCC(CN)(CC(=O)O)CC1` (stereo not shown) [Compound 10, 4-t-butylgabapentin] came in with a melting point of 182 to 183 °C. For the same compound, in data set [2], the water solubility result is on record as “much poorer water solubility”.
